One molecule from US20080254480A1, “MICROCYTOXICITY ASSAY BY PRE-LABELING TARGET CELLS” (University of Pittsburgh - Of the Commonwealth System of …, priority 2007, published 2008) can be followed below.

In series [1] the test system is BT-20 tumor cells. The experiment in a line: BrdU labeling of cell nuclear DNA of target cells in microwells of Tarasaki plates. Particulars: 5 μM of BrdU, co-incubated for 24 hours. Format: cell-based, human. Here is the method:
FIG. 2. Graph depicting BrdU concentration versus incubation period for labeling of target cells in microwells of Tarasaki plates. BT-20 tumor cells (250/microwell) were seeded in the miniplates and incubated for 24 hours. Various concentrations of BrdU then were added to the microwells containing adherent tumor cells, and the incubation was continued for various periods of time, as indicated. After this labeling, the adherent tumor cells were fixed and stained, with an isotype-matched control or an anti-BrdU mAb, and then visually analyzed. Each point on the figure represents a mean value of a triplicate. SD was less than 10% of the mean values.
BrdU-labeling of target cells in microwells. Suspensions of tumor target cells were prepared from their adherent monolayers, as described above. Target cells were resuspended in tissue culture medium (e.g., RPMI-1640 supplemented with 10% FCS) in an adequate concentration, to contain 100 to 500 cells per 10 μl. BrdU solution was added to this cell suspension, to get its final concentration of 5 μM. In some experiments, to determine the optimal labeling conditions, the concentration of BrdU was varied. […]

Series [2] relates to target cells. The experiment in a line: Functional properties of BrdU labeled target cells (viability, proliferation, TNF family receptor expression). Format: cell-based. Particulars: trypan blue dye exclusion; increase of cell numbers in culture; flow cytometry. The text has this: In order to determine whether BrdU labeling of cell nuclear DNA affects cellular functions, the inventor examined viability (by trypan blue dye exclusion assay) and proliferation (by evaluation of increase of cell numbers in culture) of target cells, after they were labeled with the DNA metabolic label. In addition, expression of the cell membrane-bound TNF family receptors involved in apoptosis mediated by immune effector cells, such as TNFR1, TNFR2, Fas and LT-βR, was investigated using flow cytometry.
Background: Dividing cells build labelled thymidine or BrdU into new DNA.

`O=c1[nH]c(=O)n([C@H]2C[C@H](O)[C@@H](CO)O2)cc1Br` [BrdU, 5-bromo-2′-deoxyuridine]: the “strong and uniformed labeling of nuclei” value in series [1] stood at 90%. The “effect of BrdU labeling on cellular functions tested (viability, proliferation, expression of TNFR1, TNFR2, Fas and LT-βR)” value in series [2] is “no significant effect”.
